Results: patent publication US20250136617A1 (The Regents of the University of Colorado, A Body Corporate, priority 2022, published 2025)
“Also recorded” adds a separate entry of the source. Where two headings read alike, the source gives them in different places.

Molecular target: CXCR4 (Homo sapiens, UniProt P61073)
Assay: β-arrestin recruitment, 384-well, Tango CXCR4-bla U2OS cells, normalized to SDF-1α
Format: cell-based
Parameters: host or cells: U2OS
Settings: for EC50: normalized to SDF-1α, read-out: ß-arrestin recruitment EC50
Summary of the method: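 Tango CXCR4-bla U2OS cells plated in DMEM with 1% dialyzed FBS (FreeStyle 293 medium for thiadiazines), incubated overnight at 37 °C, then LiveBLAzer FRET B/G substrate added for 2 h in the dark. Fluorescence read; EC50 and Emax fitted with Hill slope 1.0, normalized to SDF-1α.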

CXCR4, sequence (P61073 whole entry): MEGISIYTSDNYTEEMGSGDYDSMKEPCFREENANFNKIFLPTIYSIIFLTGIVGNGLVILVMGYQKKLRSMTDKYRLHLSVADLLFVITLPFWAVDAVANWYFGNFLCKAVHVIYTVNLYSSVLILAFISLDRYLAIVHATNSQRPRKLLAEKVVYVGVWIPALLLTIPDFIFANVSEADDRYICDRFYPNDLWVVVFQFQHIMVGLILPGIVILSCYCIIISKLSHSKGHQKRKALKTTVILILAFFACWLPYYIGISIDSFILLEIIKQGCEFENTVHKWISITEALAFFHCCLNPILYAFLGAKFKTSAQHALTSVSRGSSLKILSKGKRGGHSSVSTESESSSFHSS

| Emax (U2OS, read-out: ß-arrestin recruitment Emax (%)) [%] | SMILES | β-arrestin recruitment activity | EC50 [nM] | β-arrestin recruitment activity (listed as UCUF-965) |
| --- | --- | --- | --- | --- |
| 30 | COc1ccc(OC)c(NS(=O)(=O)c2ccc(-c3cnc(C4CC4)o3)cc2)c1 [Oxazole Entry 19, 4-(2-Cyclopropyloxazol-5-yl)-N-(2,5-dimethoxyphenyl)benzenesulfonamide] | dose-dependent partial activation of β-arrestin recruitment | 500 |  |
|  | CCOc1ccccc1-c1nnc2n1N=C(c1ccc(N3CCCC3)cc1)CS2 [Thiadiazine Entry 23, 3-(2-ethoxyphenyl)-6-(4-(pyrrolidin-1-yl)phenyl)-7H-[1,2,4]triazolo[3,4-b][1,3,4]thiadiazine] |  | 20 | dose-dependent partial activation of β-arrestin recruitment; also recorded: did not inhibit the action of SDF-1α |
